From ChEMBL document CHEMBL1134938, “Inhibition of HIV-1 nuclear import via schiff base formation with arylene bis(methylketone) compounds” (Bioorg Med Chem Lett, 2002) come the findings set out here.

For orientation: IC50 means the midpoint of a concentration-inhibition curve. A higher IC50 goes with weaker potency.

Test [1] has as its system Human immunodeficiency virus 1. Briefly: Concentration required to block the Nuclear translocation of HIV-1 pre-integration complex with Reverse Transcriptase protein. Format: functional, organism-based.
Test [2] deals with Human immunodeficiency virus 1. The test can be described thus: Concentration required to block the Nuclear translocation of HIV-1 pre-integration complex with Reverse Transcriptase protein; NA: Not Active. The test is classed as functional, organism-based.

Consider `CC(=O)c1cc(Nc2cc(C)[n+](C)c(N)n2)cc(C(C)=O)c1`, for which the IC50 in test [1] was determined as 100 nM.
In test [1], `Cc1cc(Nc2cc(C(=O)O)cc(C(=O)O)c2)nc(N)[n+]1C` returned an IC50 of 100 nM.
Take `COC(=O)c1cc(Nc2cc(C)[n+](C)c(N)n2)cc(C(=O)OC)c1`: the IC50 result in test [2] is listed as “Not Active”.
On the same count and under the same terms, the entry for `Cc1cc(Nc2cc(C(C)O)cc(C(C)O)c2)nc(N)[n+]1C` (centres undefined) is “Not Active”.
